# According to BindingDB's records for patent US12187713 (Betta Pharmaceuticals, 2025):
# Target: Programmed cell death 1 ligand/protein 1 (Homo sapiens, UniProt Q9NZQ7+Q15116)
# Assay: PD-1/PD-L1 Binding Assay (Alphascreen)
# Method: The assays were conducted in a standard black 384-well polystyrene plate with a final volume of 20 μL. Inhibitors were first serially diluted in DMSO and then added to the plate wells before the addition of other reaction components. The final concentration of DMSO in the assay was […]. Add 100 nL/well of compound to the 384 reaction plate (6008280, PerkinElmer) with Echo and centrifuge at 1000 rpm for 1 minute. Add 5 μL/well 4×PD-L1 solutions to the 384 reaction plate, centrifuge at 1000 rpm for 1 minute, and add 5 μL/well 4×PD-1 solutions, centrifuge at 1000 rpm for 1 minute, and incubate at 25° C. for 15 minutes. The concentrations of the compounds were 300, 100, 33.33, 11.11, 3.70, 1.23, 0.41, 0.137, 0.046, 0.015, 0 nM, respectively. Add 10 μL/well 2× Anti-6×His AlphaLISA Acceptor beads and Streptavidin Donor beads solution (PerkinElmer-AL356F) to the above 384 reaction plate, centrifuge at 1000 rpm for 1 minute, and incubate at 25° C. in the dark for 120 minutes. Read the AlphaLISA signal value using the Envision Reader. IC50 determination was performed by fitting the curve of percent control activity versus the log of the inhibitor concentration using the GraphPad Prism 8.0 software.
# Chain of Programmed cell death 1 ligand/protein 1 (Q9NZQ7 whole entry): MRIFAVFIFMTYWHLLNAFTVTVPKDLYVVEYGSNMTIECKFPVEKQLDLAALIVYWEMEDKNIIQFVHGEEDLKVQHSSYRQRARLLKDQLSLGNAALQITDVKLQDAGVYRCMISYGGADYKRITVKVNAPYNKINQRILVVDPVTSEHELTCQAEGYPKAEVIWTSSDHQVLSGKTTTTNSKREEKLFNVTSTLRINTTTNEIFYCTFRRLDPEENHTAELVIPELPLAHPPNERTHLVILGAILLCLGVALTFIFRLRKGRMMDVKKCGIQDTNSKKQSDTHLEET
# Chain of Programmed cell death 1 ligand/protein 1 (Q15116 whole entry): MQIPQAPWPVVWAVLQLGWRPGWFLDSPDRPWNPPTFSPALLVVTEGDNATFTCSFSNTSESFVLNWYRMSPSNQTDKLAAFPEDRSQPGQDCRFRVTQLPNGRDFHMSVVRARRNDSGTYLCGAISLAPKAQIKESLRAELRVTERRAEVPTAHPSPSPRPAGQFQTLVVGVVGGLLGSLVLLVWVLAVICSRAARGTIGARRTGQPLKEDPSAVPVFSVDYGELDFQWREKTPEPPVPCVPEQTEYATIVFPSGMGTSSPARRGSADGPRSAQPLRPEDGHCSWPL
row,Structure (SMILES),IC50 [nM]
1,"Cc1c(C2=NC3C=C(CN4CCC4(C)N)C(OC(F)F)=CC3O2)cccc1-c1cccc(-c2nc3cc(CN4CCC[C@H]4C(=O)O)c(OC(F)F)cc3o2)c1C (some centres not stated) [US12187713, Example 40]",2.5
2,"CCCNCCCN(C)CC1=CC2N=C(c3cccc(-c4cccc(-c5nc6cc(CN7CCC[C@H]7C(=O)O)c(OC(F)F)cc6o5)c4C)c3C)OC2C=C1OC(F)F (some centres not stated) [US12187713, Example 53]",2.5
